Data set [1] can be described thus: log P by reversed-phase HPLC (C 18), acidic range. The class given is physicochemical. The conditions noted are these: for logP: marked a): acidic range. Here is the method:
Temperature: 43° C. (a) Mobile phases for the determination in the acidic range: 0.1% aqueous phosphoric acid, acetonitrile; linear gradient from 10% acetonitrile to 90% acetonitrile—the corresponding measurement results are marked ^a) in Table 1.

The test system of data set [2] is weeds. The experiment in a line: Pre-emergence test, activity against weeds. The conditions noted are these: soil sprayed 24 hours after sowing, rated after three weeks. It is filed as in vivo. The text has this: (§1) Solvent: 5 parts by weight of acetone
Seeds of the test plants are sown in normal soil.

Data set [3] deals with weeds. The data set can be described thus: Trial in sown rice (greenhouse), activity against weeds. It is filed as in vivo. To be noted: foliar treatment at 1.5-2-leaf stage of rice, flooded, rated 4 weeks after application.
From the text: as §1
Plant vessels (dimensions: 20 cm×20 cm×9 cm; surface: 1/200 ar) are filled with soil from a rice field. Seeds of rice and weeds are sown into the soil, which is kept moist. At the 1.5-2-leaf stage of rice, the dilute preparation of active compound is applied as a spray (foliar treatment).
One day after the treatment, the test vessels are flooded to a water depth of 3 cm. The test batches are then kept flooded (water depth 3 cm).

Data set [4] concerns broad-leaved weeds and weed grasses. The experiment in a line: Post-emergence test, activity against weeds. It is filed as in vivo. The conditions noted are these: test plants 5-15 cm sprayed, rated after three weeks.
From the text: as §1

A further data set concerns crop plants. The conditions noted are these: post-emergence, rated after three weeks.
Another data set deals with rice. The experiment in a line: Trial in sown rice (greenhouse), tolerance by rice. It is filed as in vivo. To be noted: foliar treatment at 1.5-2-leaf stage of rice, flooded, rated 4 weeks after application.
From the text: as §1
Plant vessels (dimensions: 20 cm×20 cm×9 cm; surface: 1/200 ar) are filled with soil from a rice field. Seeds of rice and weeds are sown into the soil, which is kept moist.
The test batches are then kept flooded (water depth 3 cm).

The mark [5] stands for this setting: 0.1% aqueous phosphoric acid/acetonitrile gradient, HPLC C 18, 43° C.
Setting [6] is: 0.1% aqueous phosphoric acid, acetonitrile, HPLC reversed-phase column (C 18), 43° C.

From the text for crop plants: Emulsifier: 1 part by weight of alkylaryl polyglycol ether
After three weeks, the degree of damage to the plants is rated in % damage in comparison to the development of the untreated control.

`CN1CCCN(C(=O)Nc2c(Cl)ccc(C(=O)C3=C(O)CCCC3=O)c2Cl)C1=O` [Example 1-4]: the logP entry in data set [1] (setting [5]) is reported as “(I-2) logP = 2.33^a)”. Further, the activity against weeds entry in the data set on weeds [2] is “strong activity”. For the molecule `CON(C)C(=O)Nc1c(Cl)ccc(C(=O)C2=C(O)CCCC2=O)c1Cl` [Example 1-3], in data set [1] (setting [5]), the logP entry is on record as “(I-2) logP = 1.97^a)”. Moreover, the activity against weeds result in the data set with weeds [2] is on record as “strong activity”.

With `CCN1CCN(C(=O)Nc2c(Cl)ccc(C(=O)C3=C(O)CCCC3=O)c2Cl)C1=O` [Example 1-2], the logP entry in data set [1] (setting [5]) is “(I-2) logP = 2.33^a)”. The activity against weeds entry with weeds [2] was “strong activity”. Turning to `CN(C)NC(=O)Nc1c(Cl)ccc(C(=O)C2=C(O)CCCC2=O)c1Cl` [Example 1-6], in data set [1] (setting [5]), the logP entry is given as “(I-2) logP = 1.81^a)”. The activity against weeds entry in the data set on weeds [2] is listed as “strong activity”. For `O=C1CCCC(O)=C1C(=O)c1ccc(Cl)c(NC(=O)N2CCOCC2)c1Cl` [Example 1-5], the logP result in data set [1] (setting [5]) is reported as “(I-2) logP = 1.60^a)”. In addition, the activity against weeds result in the data set with weeds [2] is reported as “strong activity”. As for `CCON(C)C(=O)Nc1c(Cl)ccc(C(=O)C2=C(O)CCCC2=O)c1Cl` [Example 1-167], the logP result in data set [1] (setting [5]) is “(I-2) logP = 2.30^a)”.

Turning to `O=C1CCCC(O)=C1C(=O)c1ccc(Cl)c(NC(=O)N2CCCC2)c1Cl` [Example 1-16], the logP result in data set [1] (setting [5]) was “(I-2) logP = 1.90^a)”. Same read-out and setting: the result for `CCNC(=O)Nc1c(Cl)ccc(C(=O)C2=C(O)CCCC2=O)c1Cl` [Example 1-9] reads “(I-2) logP = 1.70^a)”; that for `COC(=O)c1ccc(Cl)c(NC(=O)N2CCOCC2)c1Cl` [IIIa-6], “logP = 1.34^a)”. For `O=C(Nc1nnc(C(F)(F)F)s1)Nc1c(Cl)ccc(C(=O)C2=C(O)CCCC2=O)c1Cl` [Example 1-40], the logP entry in data set [1] (setting [5]) is on record as “(I-2) logP = 2.78^a)”. Take `CCCN(C)C(=O)Nc1c(Cl)ccc(C(=O)C2=C(O)CCCC2=O)c1Cl` [Example 1-173]: the logP result in data set [1] (setting [5]) is “(I-2) logP = 2.22^a)”. `CON(C)C(=O)Nc1c(Cl)ccc(C(=O)C2=C(O)CC(C)CC2=O)c1Cl` (racemic) [Example 3-1]: the logP result in data set [1] (setting [6]) is on record as “(I-2) logP = 2.33^a)”. Turning to `CC1CC(=O)C(C(=O)c2ccc(Cl)c(NC(=O)N3CCCCO3)c2Cl)=C(O)C1` (racemic) [Example 3-69], the logP result in data set [1] (setting [6]) is “(I-2) logP = 2.52^a)”.

For the molecule `O=C1CCCC(O)=C1C(=O)c1ccc(Cl)c(NC(=O)N2CCCCO2)c1Cl` [Example 1-164], in data set [1] (setting [5]), the logP result is recorded as “(I-2) logP = 2.17^a)”.

As for `COC(=O)c1ccc(C(F)(F)F)cc1NC(=O)N1CCN(C)C1=O` [IIIa-11], in data set [1] (setting [5]), the logP entry is “logP = 2.76^a)”. As to `CCCN(CC)C(=O)Nc1c(Cl)ccc(C(=O)C2=C(O)CCCC2=O)c1Cl` [Example 1-165], in data set [1] (setting [5]), the logP result is on record as “(I-2) logP = 2.56^a)”. As for `COC(=O)c1ccc(Cl)c(NC(=O)Nn2cnnc2)c1Cl` [IIIa-25], in data set [1] (setting [5]), the logP result is given as “logP = 0.93^a)”. In the case of `O=C(NCC1CCCO1)Nc1c(Cl)ccc(C(=O)C2=C(O)CCCC2=O)c1Cl` (stereo not shown) [Example 1-33], the logP entry in data set [1] (setting [5]) is given as “(I-2) logP = 1.81^a)”. As a reminder, the chromatographic logP is a lipophilicity value derived from retention on a column. High values mean higher lipophilicity, low ones lower lipophilicity. Take `CN1CCN(C(=O)Nc2c(Cl)ccc(C(=O)C3C(=O)CCCC3=O)c2Cl)C1=O` [Example 1-1, N-[2,6-dichloro-3-[(2,6-dioxo-cyclohexyl)-carbonyl]-phenyl]-3-methyl-2-oxo-1-imidazolidinecarboxamide]: in data set [1] (reversed-phase HPLC column (C 18), pH=2.3), the chromatographic logP was determined as 2.07. The activity against weeds result in the data set with weeds [3] and in the data set with weeds [2] was “strong activity” each time. In addition, the “activity against broad-leaved weeds and weed grasses” value in data set [4] is on record as “strong activity”. In addition, the “tolerated by crop plants” value in the data set with crop plants is on record as “tolerated well”. For the same molecule, the tolerated by rice result with rice is “tolerated well”. On to `O=C1CCCC(O)=C1C(=O)c1ccc(Cl)c(NC(=O)c2ccc(Cl)cc2)c1Cl` [Example 1-150], for which, in data set [1] (setting [5]), the logP result is recorded as “(I-2) logP = 2.96^a)”. As to `CCn1ccsc1=NC(=O)Nc1c(Cl)ccc(C(=O)C2=C(O)CCCC2=O)c1Cl` [Example 1-163], the logP result in data set [1] (setting [5]) is “(I-2) logP = 2.22^a)”.

These data come from US7670991B2, “Substituted benzoylcyclohexenones and their use as herbicidal agents” (Bayer CropScience AG, priority 2001, dated 2010).
